# Assay results: PMC7352292, “Targeting Pharmacokinetic Drug Resistance in Acute Myeloid Leukemia Cells with CDK4/6 Inhibitors” (Cancers, 2020)
# Read-outs that look alike come from different tables or passages of the source.
# Experiments:
# [1] = molecular target: T1, AKR1C3 (Homo sapiens, UniProt P42330); assay: Screening for inhibitory activity on recombinant CRE: AKR1C3; assay type: biochemical; set-up: made in house; host or cells: Escherichia coli; settings: 50 μM inhibitor concentration; mean ± SD, three experiments
# T1 sequence (P42330 1-323): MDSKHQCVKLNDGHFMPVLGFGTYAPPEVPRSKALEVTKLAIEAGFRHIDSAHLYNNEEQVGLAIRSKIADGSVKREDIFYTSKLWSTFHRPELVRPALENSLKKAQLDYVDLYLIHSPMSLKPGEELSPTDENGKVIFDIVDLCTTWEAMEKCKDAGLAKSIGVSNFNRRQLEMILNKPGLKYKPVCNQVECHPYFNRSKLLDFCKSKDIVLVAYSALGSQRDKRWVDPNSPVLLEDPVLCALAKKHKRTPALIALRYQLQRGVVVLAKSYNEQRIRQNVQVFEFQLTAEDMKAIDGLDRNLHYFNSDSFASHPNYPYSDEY
# Source text: (§1) Human recombinant carbonyl reducing enzymes CBR1, AKR1A1, AKR1B1, AKR1B10, and AKR1C3 were expressed and isolated by the Escherichia coli expression system as described previously.
# [2] = system: PBMC of AML patients; assay: Mitoxantrone accumulation in PBMC of AML patients; assay type: cell-based, human; settings: 1 µM mitoxantrone, 4 h; for increase of median mitoxantrone accumulation: cmax concentrations, vs untreated control; for effect on median mitoxantrone accumulation: CD34− PBMC, cmax concentrations (0.5 µM abemaciclib, 0.5 µM palbociclib, 7.5 µM ribociclib)
# [3] = system: PBMC of AML patients; assay: Apoptosis detection (annexin V/PI) in PBMC of AML patients; assay type: cell-based, human; settings: vs untreated control, 4 h, cmax concentrations
# Method: PBMC were isolated from whole blood using Ficoll-Paque PLUS gradient solution (GE Healthcare, Sweden) according to the manufacturer’s instructions. The mononuclear cells thus obtained were washed twice in 6 ml PBS and either transferred to RPMI with 10% FBS and immediately used for experiments or stored frozen in liquid nitrogen. […] The stated concentrations correspond with cmax plasma levels of the respective drugs. […] The cells were then washed in ice-cold PBS and resuspended in 195 µL of 2% FBS in PBS. The anti-human CD34/PE antibody 4H11 (Invitrogen, Carlsbad, CA, USA) was added and incubated on ice for 30 min. This was followed by washing and resuspending in 1 × ABB and staining by annexin V/FITC conjugate as described above. After subsequent staining with PI, the samples were analyzed using the SONY SA3800 spectral cell analyzer.
# [4] = molecular target: T2, ABCG2 (Homo sapiens, UniProt Q9UNQ0); settings: 1 h
# T2 sequence (Q9UNQ0 1-655): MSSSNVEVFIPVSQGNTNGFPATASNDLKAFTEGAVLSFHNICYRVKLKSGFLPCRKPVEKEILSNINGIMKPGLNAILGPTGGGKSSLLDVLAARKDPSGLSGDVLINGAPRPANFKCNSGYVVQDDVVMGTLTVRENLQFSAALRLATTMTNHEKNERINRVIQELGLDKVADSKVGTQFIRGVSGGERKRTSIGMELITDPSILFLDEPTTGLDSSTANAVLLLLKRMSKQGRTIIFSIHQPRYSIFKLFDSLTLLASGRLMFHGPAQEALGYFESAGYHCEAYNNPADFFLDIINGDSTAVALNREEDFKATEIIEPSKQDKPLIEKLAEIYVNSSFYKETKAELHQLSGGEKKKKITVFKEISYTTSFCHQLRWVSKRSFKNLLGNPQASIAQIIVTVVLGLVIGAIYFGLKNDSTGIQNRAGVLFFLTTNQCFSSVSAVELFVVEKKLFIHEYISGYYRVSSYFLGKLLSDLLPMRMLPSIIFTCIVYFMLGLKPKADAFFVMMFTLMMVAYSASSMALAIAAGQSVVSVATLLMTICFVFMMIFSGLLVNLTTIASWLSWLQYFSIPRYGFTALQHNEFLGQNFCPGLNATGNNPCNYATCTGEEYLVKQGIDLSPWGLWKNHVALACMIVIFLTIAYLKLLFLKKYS
# Method: (§3) LY335979 (1 µM) and Ko143 (1 µM) were used as ABCB1 and ABCG2 model inhibitors. After 15 min, daunorubicin (HL-60 and HL-60 ABCB1) or mitoxantrone (HL-60 and HL-60 ABCG2) was added for 1 h at a final concentration of 1 µM (37 °C, 5% CO2). Subsequently, the samples were centrifuged at 150 × g for 5 min, washed in 500 µL ice-cold phosphate buffered saline (PBS), then resuspended again in 500 µL ice-cold PBS and promptly analyzed with a BD FACSCanto II flow cytometer (BD Biosciences, San Jose, CA, USA) using excitation/emission wavelengths 488/670 nm for daunorubicin and 633/660 nm for mitoxantrone.
# (§4) The data were statistically analyzed in GraphPad Prism 8.0.1 (GraphPad Software, Inc., San Diego, CA, USA). One-way ANOVA with Dunnett’s post hoc test or Student’s t-test was used for results obtained in vitro, and the nonparametric Mann–Whitney test was used to analyze ex vivo experiments. Half-maximal inhibitory concentrations (IC50) were calculated using sigmoidal Hill kinetics while showing also the corresponding 95% confidence intervals. The correlation between expression and function of ABCB1 and ABCG2 was determined by linear regression. All differences were considered significant at p < 0.05.
# [5] = molecular target: T3, AKR1B10 (Homo sapiens, UniProt O60218); assay: Screening for inhibitory activity on recombinant CRE: AKR1B10; assay type: biochemical; settings: 50 μM inhibitor concentration; mean ± SD, three experiments
# T3 construct: made in house; host or cells: Escherichia coli
# Source text: as §1
# [6] = molecular target: ABCB1 (Homo sapiens, UniProt P08183); assay: Daunorubicin accumulation in HL-60 ABCB1 cells
# Method: LY335979 (1 µM) and Ko143 (1 µM) were used as ABCB1 and ABCG2 model inhibitors. After 15 min, daunorubicin (HL-60 and HL-60 ABCB1) or mitoxantrone (HL-60 and HL-60 ABCG2) was added for 1 h at a final concentration of 1 µM (37 °C, 5% CO2).
# The data were statistically analyzed in GraphPad Prism 8.0.1 (GraphPad Software, Inc., San Diego, CA, USA). One-way ANOVA with Dunnett’s post hoc test or Student’s t-test was used for results obtained in vitro, and the nonparametric Mann–Whitney test was used to analyze ex vivo experiments. […] The correlation between expression and function of ABCB1 and ABCG2 was determined by linear regression. All differences were considered significant at p < 0.05.
# [7] = system: HL-60 ABCB1 cells; assay: Sub-G1 fraction of HL-60 ABCB1 cells; assay type: cell-based, human; settings: 4 h
# Method: (§2) The fluorescent substrates daunorubicin (0.2 µM) or mitoxantrone (1 µM) were then added and the suspensions incubated for 4 h at 37 °C and 5% CO2. […] The percentage of cells displaying hypodiploid DNA content is presented as a sub-G1 region of a PI histogram.
# [8] = cited from earlier work
# [9] = molecular target: T4, AKR1B1 (Homo sapiens, UniProt P15121); assay: Screening for inhibitory activity on recombinant CRE: AKR1B1; assay type: biochemical; settings: 50 μM inhibitor concentration; mean ± SD, three experiments
# T4 construct: made in house; host or cells: Escherichia coli
# Source text: as §1
# [10] = molecular target: T5, AKR1A1 (Homo sapiens, UniProt P14550); assay: Screening for inhibitory activity on recombinant CRE: AKR1A1; assay type: biochemical; settings: 50 μM inhibitor concentration; mean ± SD, three experiments
# T5 construct: made in house; host or cells: Escherichia coli
# T5 sequence (P14550 1-325): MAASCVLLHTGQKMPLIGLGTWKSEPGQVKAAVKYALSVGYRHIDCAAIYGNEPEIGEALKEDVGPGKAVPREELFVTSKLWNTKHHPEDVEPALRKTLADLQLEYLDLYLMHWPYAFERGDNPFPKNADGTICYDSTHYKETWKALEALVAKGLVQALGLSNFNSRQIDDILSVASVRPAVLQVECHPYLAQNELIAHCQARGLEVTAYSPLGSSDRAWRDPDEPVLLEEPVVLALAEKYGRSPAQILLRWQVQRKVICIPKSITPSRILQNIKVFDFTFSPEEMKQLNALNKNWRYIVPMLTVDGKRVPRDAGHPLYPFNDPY
# Source text: as §1
# [11] = molecular target: T2, ABCG2; assay: Mitoxantrone accumulation in HL-60 ABCG2 cells
# Method: as §3, §4
# [12] = molecular target: T1, AKR1C3; assay: Inhibitory assay on HCT116 cells with transient AKR1C3 expression (daunorubicin to daunorubicinol); assay type: cell-based; settings: HCT116 transfected with AKR1C3, 1 µM daunorubicin, 0.1-10 μM drug, 4 h
# Method: HCT116 cells were seeded (1.25 × 10^5 cells/well) in 24-well plates and after 24 h in culture transfected with mammalian pCI_AKR1C3 plasmid as described previously. The expression of recombinant AKR1C3 was verified by western blotting using rabbit polyclonal anti-AKR1C3 antibody (ab84327, Abcam, Cambridge, UK). Uniformity of transfection was assumed only when <10% difference was observed between experiments regarding the expression of pCI plasmid containing GFP reporter gene. […] After 4 h incubation (37 °C, 5% CO2), medium was collected, cells were lysed, and resulting samples were handled and analyzed by ultra high-performance liquid chromatography as described previously.
# [13] = system: HL-60 cells; assay: Sub-G1 fraction of HL-60 parental/control cells; assay type: cell-based, human; settings: single drug vs untreated control
# Method: as §2
# [14] = molecular target: T6, CBR1 (Homo sapiens, UniProt P16152); assay: Screening for inhibitory activity on recombinant CRE: CBR1; assay type: biochemical; settings: 50 μM inhibitor concentration; mean ± SD, three experiments
# T6 construct: made in house; host or cells: Escherichia coli
# T6 sequence (P16152 1-277): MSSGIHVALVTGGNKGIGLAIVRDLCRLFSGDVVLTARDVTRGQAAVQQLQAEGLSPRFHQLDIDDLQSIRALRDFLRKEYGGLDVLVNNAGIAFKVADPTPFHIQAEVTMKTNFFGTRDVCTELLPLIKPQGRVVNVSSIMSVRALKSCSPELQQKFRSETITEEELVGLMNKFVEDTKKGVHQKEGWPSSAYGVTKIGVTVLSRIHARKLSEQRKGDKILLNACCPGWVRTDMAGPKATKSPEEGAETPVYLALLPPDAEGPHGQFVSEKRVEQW
# Source text: as §1
# [15] = system: HL-60 ABCG2 cells; assay: Annexin V/PI staining of HL-60 ABCG2 cells; settings: mitoxantrone alone 1 µM, 4 h
# Method: The cell suspension was preincubated for 15 min, and then, 1 µM mitoxantrone was added. Mitoxantrone, a dual substrate of ABCB1 and ABCG2, was chosen as resistance victim drug for the experiment because there are no fluorescence spillovers with propidium iodide (PI), which limit the usage of daunorubicin in this setup. The cells were incubated for 4 h at 37 °C and 5% CO2, washed and subsequently resuspended in 1 × annexin binding buffer (ABB, 195 µL) followed by addition of 5 µL of annexin V/fluorescein isothiocyanate (FITC) conjugate. The suspension was incubated in darkness for 10 min. Cells were then washed once in 1 × ABB and resuspended in 400 µL of ABB. Prior to the measurement, 10 µL of PI solution was added and cells were analyzed by BD FACSCanto II flow cytometer using excitation/emission wavelengths 488/530 nm and 488/670 for FITC and PI, respectively.
# [16] = system: HL-60 ABCG2 cells; assay: Sub-G1 fraction of HL-60 ABCG2 cells; settings: mitoxantrone alone 1 µM, 4 h
# Method: Estimation of fractional DNA content in the late stage of apoptosis was additionally used to clarify the results of annexin V/PI staining. […] The fluorescent substrates daunorubicin (0.2 µM) or mitoxantrone (1 µM) were then added and the suspensions incubated for 4 h at 37 °C and 5% CO2. Afterwards, the cells were resuspended in 2% FBS in PBS and fixed with ice-cold 70% ethanol for at least 30 min at −20 °C. After fixation, the cells were diluted and washed twice with 2% FBS in PBS. Then, 50 µL of RNAse A (100 µg/mL) was applied to ensure that only DNA would be present. Next, 200 µL of PI (50 µg/mL) was added to stain the DNA content of the cells. The samples were incubated for 1 h at 37 °C and 5% CO2. Analysis was performed using a SONY SA3800 spectral cell analyzer. The percentage of cells displaying hypodiploid DNA content is presented as a sub-G1 region of a PI histogram.
# [17] = CDKI (1, 10, 25 µM abemaciclib, palbociclib, ribociclib) + 0.2 µM daunorubicin
# T3 sequence (O60218 whole entry): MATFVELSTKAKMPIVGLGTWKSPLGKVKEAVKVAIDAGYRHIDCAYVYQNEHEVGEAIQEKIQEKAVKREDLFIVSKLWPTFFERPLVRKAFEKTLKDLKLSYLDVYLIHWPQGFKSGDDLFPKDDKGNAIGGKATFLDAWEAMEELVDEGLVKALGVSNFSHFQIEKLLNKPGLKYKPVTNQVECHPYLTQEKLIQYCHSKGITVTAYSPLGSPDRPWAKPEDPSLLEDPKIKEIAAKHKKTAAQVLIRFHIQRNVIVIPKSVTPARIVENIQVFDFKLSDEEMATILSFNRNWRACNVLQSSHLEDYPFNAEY
# Chain of ABCB1 (P08183 whole entry): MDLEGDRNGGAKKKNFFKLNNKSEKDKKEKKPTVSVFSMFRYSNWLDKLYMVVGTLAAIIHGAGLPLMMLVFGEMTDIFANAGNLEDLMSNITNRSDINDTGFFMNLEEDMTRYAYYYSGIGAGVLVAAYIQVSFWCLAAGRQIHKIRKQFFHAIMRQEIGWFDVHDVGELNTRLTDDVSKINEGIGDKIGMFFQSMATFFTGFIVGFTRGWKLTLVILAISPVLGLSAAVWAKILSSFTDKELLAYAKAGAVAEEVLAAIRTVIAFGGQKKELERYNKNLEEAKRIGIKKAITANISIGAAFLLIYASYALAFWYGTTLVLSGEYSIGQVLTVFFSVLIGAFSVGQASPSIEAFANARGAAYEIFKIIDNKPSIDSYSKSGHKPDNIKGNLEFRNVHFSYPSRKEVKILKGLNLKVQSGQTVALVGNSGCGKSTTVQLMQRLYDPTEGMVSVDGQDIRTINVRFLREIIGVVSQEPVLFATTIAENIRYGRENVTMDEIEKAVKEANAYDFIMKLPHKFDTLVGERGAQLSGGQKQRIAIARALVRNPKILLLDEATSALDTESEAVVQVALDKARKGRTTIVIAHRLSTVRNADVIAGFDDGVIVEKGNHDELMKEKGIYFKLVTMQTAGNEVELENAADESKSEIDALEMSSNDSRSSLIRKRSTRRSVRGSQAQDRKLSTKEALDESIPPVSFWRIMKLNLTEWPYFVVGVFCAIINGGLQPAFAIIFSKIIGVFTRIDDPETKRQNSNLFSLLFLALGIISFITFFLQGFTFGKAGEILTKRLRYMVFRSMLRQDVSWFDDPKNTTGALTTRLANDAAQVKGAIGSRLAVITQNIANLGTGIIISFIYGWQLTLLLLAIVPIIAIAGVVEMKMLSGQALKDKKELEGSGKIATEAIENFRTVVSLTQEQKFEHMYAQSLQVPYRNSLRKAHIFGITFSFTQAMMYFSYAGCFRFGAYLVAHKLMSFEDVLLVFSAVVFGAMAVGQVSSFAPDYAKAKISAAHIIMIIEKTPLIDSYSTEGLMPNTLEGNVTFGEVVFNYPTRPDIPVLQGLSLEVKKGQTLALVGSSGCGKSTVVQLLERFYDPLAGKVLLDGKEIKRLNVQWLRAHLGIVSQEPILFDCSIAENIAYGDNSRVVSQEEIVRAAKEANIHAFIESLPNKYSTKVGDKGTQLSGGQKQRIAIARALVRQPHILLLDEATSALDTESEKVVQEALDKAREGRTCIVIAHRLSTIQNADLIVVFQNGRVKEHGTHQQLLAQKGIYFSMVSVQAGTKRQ
Compound,inhibition at 50 µM [1] [%],increase of median mitoxantrone accumulation ([2]; CD34+ PBMC) [%],effect on median mitoxantrone accumulation [2],increase of median mitoxantrone accumulation ([2]; FLT3-ITD− population) [%],changes in PBMC apoptosis after single drug exposure [3],fold lower potency toward ABCG2 compared to ABCB1 [4] [fold],inhibition at 50 µM [5] [%],IC50 [6] [µM],"sub-G1 fraction [7, 17] [%]","Cmax ([8]; human, in vivo) [nM]",inhibition at 50 µM [9] [%],inhibition at 50 µM [10] [%],IC50 [11] [µM],changes in intracellular reduction of daunorubicin to daunorubicinol [12],proapoptotic effect (sub-G1) as a single drug [13],inhibition at 50 µM [14] [%],other results
"CCN1CCN(Cc2ccc(Nc3ncc(F)c(-c4cc(F)c5nc(C)n(C(C)C)c5c4)n3)nc2)CC1 [Abemaciclib, abemaciclib]",26.3 ± 1.3,37.4,did not affect,16.4,no significant changes,8.4,2.08 ± 0.4,0.354,47.5,500,0,0,2.98,did not show any changes,"Neither abemaciclib, palbociclib, nor ribociclib caused a significant proapoptotic effect",0,–
"CC(=O)c1c(C)c2cnc(Nc3ccc(N4CCNCC4)cn3)nc2n(C2CCCC2)c1=O [Palbociclib, palbociclib]",23.5 ± 6.67,33.4,did not affect,3.58,no significant changes,6.8,0,6.65,30.7,–,5.54 ± 3.4,0,45.5,did not show any changes,"Neither abemaciclib, palbociclib, nor ribociclib caused a significant proapoptotic effect",0,"ABCG2 IC50 fold higher than cmax [4]: approximately 100 fold; Cmax ([8]; read-out: cmax plasma levels, standard dosing, concentration used in PBMC experiments): 500 nM"
"CN(C)C(=O)c1cc2cnc(Nc3ccc(N4CCNCC4)cn3)nc2n1C1CCCC1 [Ribociclib, ribociclib]",36.2 ± 2.83,60.5,did not affect,28.6,no significant changes,–,7.41 ± 1.08,–,35.6,7500,4.58 ± 2.41,0,26.9,did not show any changes,"Neither abemaciclib, palbociclib, nor ribociclib caused a significant proapoptotic effect",0,–
COc1cccc2c1C(=O)c1c(O)c3c(c(O)c1C2=O)C[C@@](O)(C(C)=O)C[C@@H]3O[C@H]1C[C@H](N)[C@H](O)[C@H](C)O1 [daunorubicin],–,–,–,–,–,–,–,–,–,–,–,–,–,–,–,–,sub-G1 fraction ([7]; daunorubicin alone 0.2 µM): 13.1%
O=C1c2c(O)ccc(O)c2C(=O)c2c(NCCNCCO)ccc(NCCNCCO)c21 [mitoxantrone],–,–,–,–,–,–,–,–,–,–,–,–,–,–,–,–,annexin V+ population [15]: 25.2%; sub-G1 fraction [16]: 46.2%
